Source: patent US5140023A, “Azatetracycle compounds” (G. D. Searle & Co., priority 1991, dated 1992)
Counter-ions that a name gives are not always drawn.

Columns and labels:
[1] = target: T1, 5-HT3 (Canis lupus familiaris, UniProt Q1HHV2); test: Antiemetic activity against cisplatin-induced emesis in beagle dogs; format: in vivo; conditions: for ED50: dog, iv, i.v. 30 min before and 2 h after cisplatin 3 mg/kg i.v., emetic episodes counted 5 h, read-out: ID50 (50% inhibition of the number of emetic episodes)
T1 construct: from tissue; host or cells: living beagle dogs (in vivo, i.v. dosing); endogenous receptor
T1 sequence (Q1HHV2 24-483): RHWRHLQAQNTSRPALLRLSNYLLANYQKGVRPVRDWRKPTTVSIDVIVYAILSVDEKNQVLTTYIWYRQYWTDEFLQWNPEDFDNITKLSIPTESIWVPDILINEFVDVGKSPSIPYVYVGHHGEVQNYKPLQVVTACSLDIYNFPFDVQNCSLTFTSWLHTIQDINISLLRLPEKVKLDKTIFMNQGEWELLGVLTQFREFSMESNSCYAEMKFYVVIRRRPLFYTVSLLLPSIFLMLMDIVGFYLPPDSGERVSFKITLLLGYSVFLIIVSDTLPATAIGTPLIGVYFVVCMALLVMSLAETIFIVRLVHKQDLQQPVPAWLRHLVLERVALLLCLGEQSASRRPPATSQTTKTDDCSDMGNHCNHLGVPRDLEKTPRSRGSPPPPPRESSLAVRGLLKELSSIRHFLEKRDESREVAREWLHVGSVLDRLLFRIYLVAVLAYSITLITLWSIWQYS
Method: 5-HT3 antagonism can be determined in a model of emesis induced by the chemotherapeutic agent cisplatin as described herein.
Antiemetic activity of test compound against cisplatin was determined in beagle dogs. Dogs are pretreated I.V. with a test compound dissolved in DMSO thirty minutes before administration of cisplatin 3 mg/kg.i.v. with a second dose of compounds given i.v. two hours after cisplatin administration. Emetic episodes are counted for 5 hours following cisplatin administration. The latency for first emesis and the number of emetic episodes for test compounds are compared with results for control treatment (vehicle).
Per cent inhibition of emesis for each animal is determined by the following formula: [formula] A mean inhibitory dose (ID50) which results in 50% inhibition of the number of emetic episodes is determined.

[2] = system: gastric emptying; test: Rat gastric emptying of a test meal (prokinetic activity); format: in vivo, rat (male Charles River, Crl: COBS, CD (SD) BR); conditions: 30 min before test meal, rats sacrificed 60 min after meal
Text: Alternatively, the compounds of formula I wherein p is 1, A is NH and B is NH or 0 can be prepared by treating ArNH2 (37) with compounds of formula 38 (an isocyanate or activated carbonyl derivative of azatetracycles 11, 26, 32 or 35). L1 is as described above. […] Prokinetic activity of a compound can be determined by measuring the enhancement of gastric emptying of a meal in a rat model to which the compound has been administered. This method for determining prokinetic activity of a compound has been described by Droppleman, et al, J. Pharmacol. and Methods 4: 227-230 (1980).
A test meal for measuring gastric emptying in rats was prepared. Ten grams of methylcellulose (2% solution=15 centipoises; Aldrich Chemical Company, Milwaukee, Wis.) was added to 200ml of cold water and mixed at 20,000 rpm in a Waring blender to insure dispersion and hydration of the methylcellulose. In addition, two beef bouillon cubes (Wyler's, Columbus, Ohio) dissolved in 100ml of warm water was added to the mixture, followed by 16g of casein (Hammersten, Schwartz/Mann, Orangeburg, N.Y.), 8g of powdered confectioners sugar and 8g of cornstarch. The ingredients were mixed for two minutes at 20,000 rpm and the resultant test meal was refrigerated for 48 hours to allow trapped air to escape. Male Charles River Rats, Crl: COBS, CD (SD) BR Strain, 180-200g body weight, were used in groups of six animals. The animals were food deprived for 24 hours prior to the experiment with access to water ad libitum. The compounds to be evaluated were prepared in a 0.5% aqueous methylcellulose solution. If insoluble, the mixture was homogenized for two minutes at 5500 rpm using a Try R-Stir-R. The compounds were injected intraperitoneally at a volume of 5 ml/kg, 30 minutes before the test meal, (3.0ml/rat i.g.). Control animals received only the vehicle. Sixty minutes after the test meal, the rats were sacrificed by cervical dislocation. The stomachs were removed intact and weighed. The stomachs were kept opened, gently rinsed with tap water, blotted dry with paper towelling, and the empty stomach weighed. The difference between the weight of the full and empty stomach is indicative of the amount of meal remaining in the stomach. The amount of meal remaining in the stomach was subtracted from the weight of 3ml of the test meal to determine the amount of food emptied from the stomach during the test. Weight of the test meal was determined by weighing three samples (3ml) at the beginning and three samples at the end of each experiment and calculating the mean. The mean and standard error of the amount of meal emptied were calculated.
The results of following the protocol and comparing representative compounds herein to known prokinetic agents, metoclopramide and cisapride, are shown in Table III.

SMILES	ED50 [1]	% increase in gastric emptying ([2]; 1.0 mg/kg ip)	% increase in gastric emptying ([2]; 3.0 mg/kg ip)	% increase in gastric emptying ([2]; 10.0 mg/kg ip)	other results
COc1cc(N)c(Cl)cc1C(=O)NC1CCN2CCCC1C2 (centres unmarked) [BRL-24924]	0.1 mg/kg	29.8%	34.2%	35.2%	
COc1cc(N)c(Cl)cc1C(=O)NC1CCN(CCCOc2ccc(F)cc2)CC1OC (centres unmarked) [Cisapride, cisapride]	0.6 mg/kg	9.8%	15.4%	25.0%	
COc1cc(N)c(Cl)cc1C(=O)N[C@H]1[C@H]2C[C@@H]3CN(C2)C[C@@H]31 (relative stereo) [Example 12, 2-methoxy-4-amino-5-chloro-N-(hexahydro-1H-2,5B-methano-3aα, 6aα-cyclopenta[c]pyrrol-4α-yl)benzamidehydrochloride]	0.03 mg/kg	45.3%			% increase in gastric emptying ([2]; 0.001 mg/kg ip): -5.8%; % increase in gastric emptying ([2]; 0.01 mg/kg ip): 2.0%; % increase in gastric emptying ([2]; 0.03 mg/kg ip): 16.4%; % increase in gastric emptying ([2]; 0.1 mg/kg ip): 31.3%; % increase in gastric emptying ([2]; 0.3 mg/kg ip): 32.1%
CN1[C@@H]2CC[C@H]1C[C@@H](OC(=O)c1c[nH]c3ccccc13)C2 [ICS 205-930]	0.01 mg/kg				
Cn1nc(C(=O)N[C@H]2[C@H]3C[C@@H]4CN(C3)C[C@@H]42)c2ccccc21 (relative stereo) [Example 27, (±)-N-(hexahydro-1H-2,5β-methano-3aα,6aα-cyclopenta[c]pyrrol-4α-yl)-1-methyl-1H-indazole-3-carboxamide, hydrochloride]	0.1 mg/kg				% inhibition (of emesis) ([1]; cisplatin 3 mg/kg i.v., printed in parentheses under 0.10 mg/kg iv): 72%
COc1cc(N)c(Cl)cc1C(=O)NC1CN2CCC1CC2 (centres unmarked) [ZACOPRIDE]		11.8%	9.3%	18.5%	% increase in gastric emptying ([2]; 0.3 mg/kg ip): 1.4%; % increase in gastric emptying ([2]; 30.0 mg/kg ip): 6.3%
CCN(CC)CCNC(=O)c1cc(Cl)c(N)cc1OC [METOCLOPRAMIDE, metoclopramide]		2.6%	11.2%	34.1%	
